# Data: ChEMBL document CHEMBL1201862, “PubChem BioAssay data set” (2004)
# The source made the active and inactive calls.
# What was measured:
# [1] = molecular target: Peroxisome proliferator-activated receptor gamma/Nuclear receptor coactivator 3 (Homo sapiens, UniProt P37231); format: functional;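 further: agonist potency for raising coactivator recruitment to the receptor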
# [2] = molecular target: Peroxisome proliferator-activated receptor gamma/Nuclear receptor coactivator 1 (Homo sapiens, UniProt P37231); format: functional;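 further: agonist potency as compounds enhance coactivator SRC-1 recruitment to PPARgamma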
# Chain of Peroxisome proliferator-activated receptor gamma/Nuclear receptor coactivator 1 (P37231 whole entry): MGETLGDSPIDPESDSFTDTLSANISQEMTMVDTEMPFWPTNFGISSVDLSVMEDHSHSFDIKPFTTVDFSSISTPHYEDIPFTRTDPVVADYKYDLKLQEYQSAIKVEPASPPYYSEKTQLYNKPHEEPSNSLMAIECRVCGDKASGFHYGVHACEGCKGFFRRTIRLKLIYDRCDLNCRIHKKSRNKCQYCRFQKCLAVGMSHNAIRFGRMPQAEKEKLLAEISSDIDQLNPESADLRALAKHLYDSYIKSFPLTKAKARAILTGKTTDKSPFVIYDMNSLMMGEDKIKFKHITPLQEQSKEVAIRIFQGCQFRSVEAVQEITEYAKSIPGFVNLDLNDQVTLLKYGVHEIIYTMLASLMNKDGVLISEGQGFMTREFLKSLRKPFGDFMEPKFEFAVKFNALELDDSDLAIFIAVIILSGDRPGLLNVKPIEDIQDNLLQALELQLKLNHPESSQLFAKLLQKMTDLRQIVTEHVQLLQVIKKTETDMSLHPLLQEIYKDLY
# Chain of Peroxisome proliferator-activated receptor gamma/Nuclear receptor coactivator 1 (Q15788 whole entry, further chain): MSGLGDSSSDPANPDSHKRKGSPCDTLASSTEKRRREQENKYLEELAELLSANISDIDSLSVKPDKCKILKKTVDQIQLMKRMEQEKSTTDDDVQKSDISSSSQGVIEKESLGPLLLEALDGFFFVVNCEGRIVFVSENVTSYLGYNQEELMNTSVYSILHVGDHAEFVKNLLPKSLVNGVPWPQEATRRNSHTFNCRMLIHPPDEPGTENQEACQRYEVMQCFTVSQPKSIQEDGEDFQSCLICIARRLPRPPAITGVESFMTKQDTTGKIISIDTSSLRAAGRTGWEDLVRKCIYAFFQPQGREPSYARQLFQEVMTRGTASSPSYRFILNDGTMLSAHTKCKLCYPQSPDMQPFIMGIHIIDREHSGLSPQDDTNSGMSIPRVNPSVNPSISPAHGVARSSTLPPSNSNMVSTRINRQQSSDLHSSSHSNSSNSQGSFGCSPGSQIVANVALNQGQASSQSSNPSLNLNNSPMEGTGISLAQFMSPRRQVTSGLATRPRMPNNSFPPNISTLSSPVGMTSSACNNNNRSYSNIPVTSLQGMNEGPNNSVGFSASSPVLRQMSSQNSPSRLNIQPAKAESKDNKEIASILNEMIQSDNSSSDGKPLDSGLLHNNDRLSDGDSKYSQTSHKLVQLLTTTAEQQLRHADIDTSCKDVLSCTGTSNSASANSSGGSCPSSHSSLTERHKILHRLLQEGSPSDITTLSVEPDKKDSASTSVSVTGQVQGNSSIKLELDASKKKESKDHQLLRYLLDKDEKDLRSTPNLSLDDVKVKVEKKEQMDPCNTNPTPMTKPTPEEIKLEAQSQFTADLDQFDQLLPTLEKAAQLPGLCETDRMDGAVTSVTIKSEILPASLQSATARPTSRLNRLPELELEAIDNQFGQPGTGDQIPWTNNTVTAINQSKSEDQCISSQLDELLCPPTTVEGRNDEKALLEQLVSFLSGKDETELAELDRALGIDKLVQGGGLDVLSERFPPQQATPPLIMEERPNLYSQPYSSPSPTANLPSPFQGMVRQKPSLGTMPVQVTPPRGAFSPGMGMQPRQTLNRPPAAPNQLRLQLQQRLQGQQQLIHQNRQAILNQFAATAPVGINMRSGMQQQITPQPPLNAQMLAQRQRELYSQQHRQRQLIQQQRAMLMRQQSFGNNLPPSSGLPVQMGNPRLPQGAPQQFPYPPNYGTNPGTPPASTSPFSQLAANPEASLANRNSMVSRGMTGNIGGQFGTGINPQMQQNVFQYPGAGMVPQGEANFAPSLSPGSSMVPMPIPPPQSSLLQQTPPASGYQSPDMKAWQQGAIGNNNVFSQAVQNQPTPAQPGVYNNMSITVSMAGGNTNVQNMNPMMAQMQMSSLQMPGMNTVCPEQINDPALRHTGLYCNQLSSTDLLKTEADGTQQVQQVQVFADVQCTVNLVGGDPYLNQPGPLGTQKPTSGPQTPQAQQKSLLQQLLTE
# [3] = A Cell Based Secondary Assay To Explore Cytotoxicity of Compounds that Sensitize Mycobacterium Tuberculosis to Beta-Lactam Antibiotics.; format: functional
# [4] = molecular target: Peroxisome proliferator-activated receptor gamma/Nuclear receptor coactivator 2 (Homo sapiens, UniProt P37231); format: functional;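 further: agonist potency for raising coactivator recruitment to the receptor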
# Chain of Peroxisome proliferator-activated receptor gamma/Nuclear receptor coactivator 2 (P37231 whole entry): as the sequence (P37231 whole entry) above
# Chain of Peroxisome proliferator-activated receptor gamma/Nuclear receptor coactivator 2 (Q15596 whole entry, further chain): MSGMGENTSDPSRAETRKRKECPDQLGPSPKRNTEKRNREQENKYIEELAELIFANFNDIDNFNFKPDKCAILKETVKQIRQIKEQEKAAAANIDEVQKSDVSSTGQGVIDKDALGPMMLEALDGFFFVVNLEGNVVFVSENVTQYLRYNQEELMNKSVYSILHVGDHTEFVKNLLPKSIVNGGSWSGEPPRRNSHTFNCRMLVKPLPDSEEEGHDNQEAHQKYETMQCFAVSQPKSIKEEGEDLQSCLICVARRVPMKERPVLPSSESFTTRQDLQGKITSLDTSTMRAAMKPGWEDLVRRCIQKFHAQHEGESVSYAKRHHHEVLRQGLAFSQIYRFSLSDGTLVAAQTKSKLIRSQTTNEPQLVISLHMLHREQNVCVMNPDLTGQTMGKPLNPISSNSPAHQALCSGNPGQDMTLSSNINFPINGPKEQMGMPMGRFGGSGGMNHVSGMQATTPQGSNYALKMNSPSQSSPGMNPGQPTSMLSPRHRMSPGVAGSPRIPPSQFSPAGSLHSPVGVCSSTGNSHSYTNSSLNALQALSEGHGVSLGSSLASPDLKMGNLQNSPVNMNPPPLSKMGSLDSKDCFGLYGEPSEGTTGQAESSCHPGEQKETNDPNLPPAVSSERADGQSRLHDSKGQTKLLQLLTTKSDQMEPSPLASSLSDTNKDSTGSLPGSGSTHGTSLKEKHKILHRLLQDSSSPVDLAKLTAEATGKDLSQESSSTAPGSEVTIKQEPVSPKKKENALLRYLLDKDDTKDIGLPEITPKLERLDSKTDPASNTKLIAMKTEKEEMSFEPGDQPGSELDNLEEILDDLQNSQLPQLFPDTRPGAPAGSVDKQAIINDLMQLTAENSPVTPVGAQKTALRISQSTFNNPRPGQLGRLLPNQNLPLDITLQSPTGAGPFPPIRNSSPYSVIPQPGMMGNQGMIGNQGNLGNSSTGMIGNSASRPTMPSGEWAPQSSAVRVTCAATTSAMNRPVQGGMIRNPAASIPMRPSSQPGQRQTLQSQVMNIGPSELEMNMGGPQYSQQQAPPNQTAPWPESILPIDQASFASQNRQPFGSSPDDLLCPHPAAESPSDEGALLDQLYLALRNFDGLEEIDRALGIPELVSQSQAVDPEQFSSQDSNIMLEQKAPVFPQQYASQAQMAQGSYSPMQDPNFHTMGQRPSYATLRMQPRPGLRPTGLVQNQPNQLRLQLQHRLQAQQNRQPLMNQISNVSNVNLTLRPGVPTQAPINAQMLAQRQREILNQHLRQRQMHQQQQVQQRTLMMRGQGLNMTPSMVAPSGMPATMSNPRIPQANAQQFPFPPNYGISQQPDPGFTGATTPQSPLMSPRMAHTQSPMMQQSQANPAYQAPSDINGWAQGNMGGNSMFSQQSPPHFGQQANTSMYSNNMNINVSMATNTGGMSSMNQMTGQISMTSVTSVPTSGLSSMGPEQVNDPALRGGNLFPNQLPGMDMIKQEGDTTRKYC
# Protein RecA = molecular target: T1, Protein RecA (Mycobacterium tuberculosis, UniProt P9WHJ3); assay: Fluorescence Cell-Free Homogeneous Dose Retest to Identify Inhibitors of RecA-Intein Splicing Activity. [Related pubchem assays (depositor defined):AID2097, AID2223, AID489010, AID492950]; format: functional
# T1 sequence (P9WHJ3 whole entry): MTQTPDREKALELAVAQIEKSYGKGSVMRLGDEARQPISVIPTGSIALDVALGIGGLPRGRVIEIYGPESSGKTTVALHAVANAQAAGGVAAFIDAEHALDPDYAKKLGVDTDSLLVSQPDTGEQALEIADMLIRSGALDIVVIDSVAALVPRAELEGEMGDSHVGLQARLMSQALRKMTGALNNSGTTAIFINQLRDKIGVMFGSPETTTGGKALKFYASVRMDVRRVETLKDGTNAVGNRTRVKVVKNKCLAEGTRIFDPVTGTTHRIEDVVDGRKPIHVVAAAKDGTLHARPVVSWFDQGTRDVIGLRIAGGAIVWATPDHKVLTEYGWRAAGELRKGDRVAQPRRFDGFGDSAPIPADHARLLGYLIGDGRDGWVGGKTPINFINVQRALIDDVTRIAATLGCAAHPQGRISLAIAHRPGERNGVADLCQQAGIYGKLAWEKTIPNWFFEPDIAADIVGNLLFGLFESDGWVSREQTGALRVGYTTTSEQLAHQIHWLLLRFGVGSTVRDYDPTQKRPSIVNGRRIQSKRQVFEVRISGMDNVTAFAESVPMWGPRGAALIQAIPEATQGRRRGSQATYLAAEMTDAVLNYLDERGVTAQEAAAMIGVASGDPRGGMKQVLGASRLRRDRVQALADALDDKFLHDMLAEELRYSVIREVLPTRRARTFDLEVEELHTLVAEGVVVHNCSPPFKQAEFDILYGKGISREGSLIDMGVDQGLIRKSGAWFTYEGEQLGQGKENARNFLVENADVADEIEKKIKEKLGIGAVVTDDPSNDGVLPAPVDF
# [5] = cytotoxicity in HPDE-C7 cells, cell-based, fluorescence, HTS (AID 430); format: functional; settings: Homo sapiens
# [6] = molecular target: T2, Replicative DNA helicase DnaB (Mycobacterium tuberculosis, UniProt P9WMR3); assay: DnaB intein splicing inhibitors, dose response, biochemical, cell-free fluorescence (AID 449749); format: functional
# T2 sequence (P9WMR3 whole entry): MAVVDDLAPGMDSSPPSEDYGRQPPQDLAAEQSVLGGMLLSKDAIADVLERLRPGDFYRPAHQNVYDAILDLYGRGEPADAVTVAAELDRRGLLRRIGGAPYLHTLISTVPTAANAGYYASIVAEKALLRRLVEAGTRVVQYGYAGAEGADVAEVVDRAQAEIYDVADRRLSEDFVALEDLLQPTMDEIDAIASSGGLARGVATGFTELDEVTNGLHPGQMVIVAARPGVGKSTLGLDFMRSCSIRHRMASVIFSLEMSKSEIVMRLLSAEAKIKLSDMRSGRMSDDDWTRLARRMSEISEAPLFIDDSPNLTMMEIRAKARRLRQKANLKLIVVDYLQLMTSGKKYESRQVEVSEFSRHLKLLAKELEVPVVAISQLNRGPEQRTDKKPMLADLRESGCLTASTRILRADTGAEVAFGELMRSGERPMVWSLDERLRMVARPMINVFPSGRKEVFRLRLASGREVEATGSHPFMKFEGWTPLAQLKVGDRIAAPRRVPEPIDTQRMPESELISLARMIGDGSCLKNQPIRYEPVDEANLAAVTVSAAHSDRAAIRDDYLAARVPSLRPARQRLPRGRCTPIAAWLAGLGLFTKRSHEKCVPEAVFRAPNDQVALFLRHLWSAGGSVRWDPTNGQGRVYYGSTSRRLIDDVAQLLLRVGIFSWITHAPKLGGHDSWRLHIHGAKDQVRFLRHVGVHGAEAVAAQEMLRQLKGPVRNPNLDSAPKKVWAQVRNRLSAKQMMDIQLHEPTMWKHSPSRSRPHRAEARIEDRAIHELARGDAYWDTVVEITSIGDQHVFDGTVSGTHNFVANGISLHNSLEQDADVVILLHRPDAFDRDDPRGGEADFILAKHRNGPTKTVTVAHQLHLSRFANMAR
# [7] = cytotoxicity in KRAS-transformed pancreatic duct cells, primary screen, cell-based, fluorescence, HTS (AID 431); format: functional; settings: Homo sapiens;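 further: cell line used: HPDE-C7K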
# [8] = molecular target: T3, Heat shock factor protein 1 (Mus musculus, UniProt P38532); assay: HSF1 potentiators in luciferase reporter cells, confirmation, cell-based, NIH3T3, luminescence, dose retest (AID 435004); format: functional;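 further: stress induced by proteasome inhibitor MG132 added 30 min after compound; luciferase reporter driven by HSF1 response element in NIH3T3 cells; actives raise luminescence as potentiators of the MG132 stress response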
# T3 sequence (P38532 whole entry): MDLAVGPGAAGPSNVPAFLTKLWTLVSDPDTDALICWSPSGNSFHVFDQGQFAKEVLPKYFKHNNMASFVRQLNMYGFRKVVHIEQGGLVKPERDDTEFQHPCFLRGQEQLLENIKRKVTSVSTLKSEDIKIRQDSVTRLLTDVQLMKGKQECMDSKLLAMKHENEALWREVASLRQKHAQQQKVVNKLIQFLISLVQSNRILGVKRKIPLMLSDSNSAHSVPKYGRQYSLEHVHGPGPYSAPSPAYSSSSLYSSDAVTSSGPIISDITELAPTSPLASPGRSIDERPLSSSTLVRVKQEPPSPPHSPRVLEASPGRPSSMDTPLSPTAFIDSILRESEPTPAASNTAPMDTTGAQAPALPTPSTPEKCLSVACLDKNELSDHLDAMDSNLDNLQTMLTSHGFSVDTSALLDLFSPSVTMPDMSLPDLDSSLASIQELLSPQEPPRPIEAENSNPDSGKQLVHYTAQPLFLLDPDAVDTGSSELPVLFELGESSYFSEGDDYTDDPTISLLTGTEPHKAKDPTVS
# Mucolipin-3 = molecular target: T4, Mucolipin-3 (Homo sapiens, UniProt Q8TDD5); assay: Dose response cell-based high-throughput screening assay for agonists of the transient receptor potential channel ML3 (TRPML3). [Related pubchem assays: 1526, 1424, 1448 ]; format: functional
# T4 sequence (Q8TDD5 whole entry): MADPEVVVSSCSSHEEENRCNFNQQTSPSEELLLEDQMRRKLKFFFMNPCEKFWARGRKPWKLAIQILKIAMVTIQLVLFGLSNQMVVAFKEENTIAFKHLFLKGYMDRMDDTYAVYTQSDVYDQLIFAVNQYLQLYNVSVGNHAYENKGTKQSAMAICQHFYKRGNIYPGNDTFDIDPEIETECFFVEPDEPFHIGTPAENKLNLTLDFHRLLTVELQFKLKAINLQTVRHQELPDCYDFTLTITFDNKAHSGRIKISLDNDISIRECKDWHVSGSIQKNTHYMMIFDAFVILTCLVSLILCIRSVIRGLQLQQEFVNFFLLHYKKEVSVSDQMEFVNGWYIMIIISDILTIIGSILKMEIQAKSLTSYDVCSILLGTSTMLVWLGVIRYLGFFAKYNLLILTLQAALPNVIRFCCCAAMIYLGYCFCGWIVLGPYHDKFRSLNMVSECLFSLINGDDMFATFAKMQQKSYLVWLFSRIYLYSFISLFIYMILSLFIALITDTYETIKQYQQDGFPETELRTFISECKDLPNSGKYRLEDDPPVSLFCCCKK
# Cytochrome P450 1A2 = molecular target: T5, Cytochrome P450 1A2 (Homo sapiens, UniProt P05177);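 further: PubChem cytochrome P450 panel assay, CYP1A2 panel member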
# T5 sequence (P05177 whole entry): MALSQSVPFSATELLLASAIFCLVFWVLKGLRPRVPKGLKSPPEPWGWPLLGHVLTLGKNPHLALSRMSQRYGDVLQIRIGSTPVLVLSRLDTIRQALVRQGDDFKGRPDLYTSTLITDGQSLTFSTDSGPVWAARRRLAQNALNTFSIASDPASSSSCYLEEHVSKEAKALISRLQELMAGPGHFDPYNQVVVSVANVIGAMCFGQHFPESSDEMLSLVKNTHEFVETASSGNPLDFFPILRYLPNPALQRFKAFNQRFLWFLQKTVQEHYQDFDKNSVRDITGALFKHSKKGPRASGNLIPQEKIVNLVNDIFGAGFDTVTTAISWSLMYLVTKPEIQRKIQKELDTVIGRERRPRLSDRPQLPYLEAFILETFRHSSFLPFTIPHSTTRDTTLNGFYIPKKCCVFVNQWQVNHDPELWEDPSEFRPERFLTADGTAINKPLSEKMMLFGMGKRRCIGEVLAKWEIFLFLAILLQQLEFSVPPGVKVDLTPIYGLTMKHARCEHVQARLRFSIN
# Ion channel NompC = Ion channel NompC (Danio rerio, UniProt Q7T1G6); assay: Fluorescence counterscreen assay for TRPML3 agonists: dose response cell-based high-throughput screening assay to identify agonists of the transient receptor potential channel N1 (TRPN1). [Related pubchem assays: 1526, 1424, 1448 ]; format: functional
# [9] = molecular target: T6, Polyadenylate-binding protein 1 (Homo sapiens, UniProt P11940); assay: PABP1 MLLE–PAM2 interaction inhibitors, dose response, miRNA deadenylation inhibitor project, biochemical, fluorescence polarization, Cy5-PAM2 peptide, secondary (AID 602260); format: functional; settings: read-out: IC50_Mean
# T6 sequence (P11940 whole entry): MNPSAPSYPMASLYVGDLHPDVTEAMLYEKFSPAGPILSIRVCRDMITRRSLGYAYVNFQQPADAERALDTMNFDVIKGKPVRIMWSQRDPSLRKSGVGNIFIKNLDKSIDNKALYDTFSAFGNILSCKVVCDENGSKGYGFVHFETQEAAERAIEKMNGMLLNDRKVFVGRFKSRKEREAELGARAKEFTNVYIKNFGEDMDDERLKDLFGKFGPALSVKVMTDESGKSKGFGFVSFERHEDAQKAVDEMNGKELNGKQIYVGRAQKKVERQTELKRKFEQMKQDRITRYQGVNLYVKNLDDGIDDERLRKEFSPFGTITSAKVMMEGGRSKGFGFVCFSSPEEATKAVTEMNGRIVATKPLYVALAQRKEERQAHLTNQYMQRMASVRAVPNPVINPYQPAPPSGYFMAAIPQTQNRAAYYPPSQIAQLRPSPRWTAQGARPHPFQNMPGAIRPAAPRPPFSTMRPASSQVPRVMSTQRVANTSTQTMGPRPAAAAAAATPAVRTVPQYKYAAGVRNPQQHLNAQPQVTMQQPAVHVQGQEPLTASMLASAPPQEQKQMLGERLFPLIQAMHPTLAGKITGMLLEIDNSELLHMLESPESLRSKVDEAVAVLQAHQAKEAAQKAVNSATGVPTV
# [10] = molecular target: T6, Polyadenylate-binding protein 1; assay: PABP1 MLLE–PAM2 binding inhibitor potency, dose response, biochemical, fluorescence polarization, FITC-PAM2 peptide (AID 602259); format: functional; settings: read-out: IC50_Mean
# [11] = insulin promoter down-regulators in MIN6 cells, imaging, high-content screening, mouse beta cells (AID 1628); format: functional
# [12] = cytotoxicity in MIN6 insulinoma cells, dose response, cytotoxicity control, cell-based, mouse insulinoma (AID 2122); format: functional;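 further: confirmatory high-throughput counterscreen run to flag cytotoxic compounds; mouse MIN-6 beta cells carrying an insulin promoter eGFP reporter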
# [13] = HEp-2 cell cytotoxicity, dose response, cytotoxicity control for RSV inhibitor project, HTS (AID 2410); format: functional; settings: human respiratory syncytial virus
# [14] = A High Throughput Confirmatory Assay used to Identify Novel Compounds that Inhibit Mycobacterium Tuberculosis in the absence of Glycerol.; format: functional
# [15] = microbe, parasite or virus in culture; format: functional; settings: Mycobacterium tuberculosis
# [16] = molecular target: T7, Short transient receptor potential channel 4 (Mus musculus, UniProt Q9QUQ5); assay: mouse TRPC4 channel inhibitors, dose response, cell-based, HEK293 TRPC4/mu-opioid, Fluo-4 calcium (AID 434942); format: functional;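 further: potency of inhibitors blocking the TRPC4 calcium response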
# T7 sequence (Q9QUQ5 whole entry): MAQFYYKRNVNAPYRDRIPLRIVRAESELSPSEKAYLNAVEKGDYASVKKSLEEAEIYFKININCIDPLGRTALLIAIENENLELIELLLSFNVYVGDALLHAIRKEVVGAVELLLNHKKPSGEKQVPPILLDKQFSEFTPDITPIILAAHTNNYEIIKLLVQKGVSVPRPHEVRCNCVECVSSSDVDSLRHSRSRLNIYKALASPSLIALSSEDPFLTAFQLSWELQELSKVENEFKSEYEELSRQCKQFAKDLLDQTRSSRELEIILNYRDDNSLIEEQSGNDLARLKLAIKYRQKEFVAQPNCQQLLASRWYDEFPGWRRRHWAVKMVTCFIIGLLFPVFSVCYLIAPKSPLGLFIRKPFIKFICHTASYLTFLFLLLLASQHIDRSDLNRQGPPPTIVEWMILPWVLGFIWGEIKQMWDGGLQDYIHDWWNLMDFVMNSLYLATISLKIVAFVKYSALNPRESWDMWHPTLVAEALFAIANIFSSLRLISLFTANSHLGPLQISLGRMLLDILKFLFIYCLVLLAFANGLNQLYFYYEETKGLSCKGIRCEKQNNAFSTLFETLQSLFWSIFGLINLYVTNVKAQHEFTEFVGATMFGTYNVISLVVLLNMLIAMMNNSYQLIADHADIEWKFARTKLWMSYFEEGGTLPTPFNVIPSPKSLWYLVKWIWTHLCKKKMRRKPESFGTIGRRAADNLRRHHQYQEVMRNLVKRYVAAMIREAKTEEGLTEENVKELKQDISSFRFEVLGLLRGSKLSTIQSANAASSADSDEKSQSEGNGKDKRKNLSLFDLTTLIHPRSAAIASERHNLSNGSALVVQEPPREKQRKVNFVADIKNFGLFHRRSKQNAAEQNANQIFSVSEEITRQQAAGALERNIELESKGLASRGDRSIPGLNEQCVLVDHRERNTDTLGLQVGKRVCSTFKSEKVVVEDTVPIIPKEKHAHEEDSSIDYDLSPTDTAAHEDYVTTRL
structure (smiles),measurement,setting,value
Cc1nc(SCC(=O)Nc2ccc(F)cc2)c(C#N)c(C)c1CC(=O)c1ccc(Br)cc1,EC50,[1],24.8 µM (not active)
same,EC50,[2],13.8 µM (not active)
same,CC50,[3],9.4 µM (active)
same,EC50,[4],9.89 µM (active)
COc1ccccc1-n1nnnc1S(=O)(=O)Cc1ccc(Cl)cc1,EC50,Protein RecA,1.94 µM (active)
same,EC50,[5],6.84 µM (active)
same,AC50,[6],5.1 µM (active)
same,EC50,[7],9.56 µM (active)
same,EC50,[8],17.3 µM (active)
Cc1sc(-n2c(C)cc(/C=N/n3cnnc3)c2C)c(C#N)c1C,EC50,[1],> 79.4 µM (not active)
same,EC50,[2],> 79.4 µM (not active)
same,EC50,[4],> 79.4 µM (not active)
O=S(=O)(C=C(c1ccccc1)c1ccccc1)c1ccccc1,EC50,Mucolipin-3,2.82 µM (active)
same,AC50,Cytochrome P450 1A2,28.2 µM (inconclusive)
same,EC50,Ion channel NompC,> 29.9 µM (not active)
CCOC(=O)CSc1nc2c(sc(=S)n2-c2ccccc2OC)c(=O)n1Cc1ccco1,EC50,Mucolipin-3,0.37 µM (active)
same,IC50,[9],> 66 µM (inactive)
same,EC50,Ion channel NompC,> 29.9 µM (not active)
same,IC50,[10],> 66 µM (inactive)
Cc1ccc(C(C)C)c(OCC(=O)Nc2ccccc2N2CCN(C)CC2)c1,EC50,[5],> 20 µM (not active)
same,EC50,[7],> 20 µM (not active)
same,IC50,[11],2.58 µM (active)
same,IC50,[12],6.82 µM (active)
O=C(NC1=NCCS1)c1cc(-c2ccc(-c3ccccc3)cc2)nc2ccccc12,IC50,cells,21.7 µM (active)
same,CC50,[13],21.9 µM (active)
COc1ccc(-c2cc(-c3ccc(OC)cc3)[nH]n2)cc1,IC50,[14],> 50 µM (active)
N#Cc1cccc2c1-c1ccccc1/C2=N/NC(N)=O,IC50,[14],> 100 µM (active)
same,CC50,[15],> 40 µM (active)
same,EC50,[16],0.0533 µM (active)
Cc1ccc(N2C(=O)C3CCC(c4ccccc4)CC3C2=O)cc1 (configuration not stated),EC50,[1],> 79.4 µM (not active)
same,EC50,[2],> 79.4 µM (not active)
same,EC50,[4],> 79.4 µM (not active)
